{
  "source": "paper PMC8753592",
  "about": "“Long-acting capsid inhibitor protects macaques from repeat SHIV challenges” (Nature, 2021)",
  "experiment": "Pilot pharmacokinetic study, single subcutaneous administration",
  "conditions": "individual animals",
  "protocol": "All study protocols were reviewed and approved by the Covance Laboratories Institutional Animal Care and Use Committee (IACUC).\nRhesus plasma samples were stored frozen at −80 °C. For analysis, the samples were thawed, and a 50-µl aliquot of each sample was treated with 200 µl acetonitrile containing a generic internal small-molecule standard. After precipitation of the protein component, a 100-µl aliquot of the supernatant was transferred to a clean 96-well plate and was mixed with 200 µl water. A 20-μl aliquot of the above solution was then injected into a Q-Exactive high-resolution mass spectrometer (Thermo Scientific) with electrospray ionization in positive mode. Quantification was performed with a Thermo Scientific Xcalibur 4.0.27.19 using accurate masses (<5 parts per million mass error; [M + H]^+ of 958.1853 for GC-CA1 and 758.3270 for the internal standard, respectively)[22],[23]. […] Pharmacokinetic parameters, including the area under the plasma concentration–time curve from time 0 to the last quantifiable time point (AUClast), the area under the plasma concentration–time curve from time 0 to infinity (AUCinf), the maximum concentration (Cmax), the time to reach the observed peak plasma concentration (tmax) and the terminal half-life (t1/2), were determined by non-compartmental analysis using Phoenix WinNonlin 6.4 build 8.1.0.3530 software (Pharsight).",
  "note": "Several values for one entry are separate records, joined by “and”; a condition that tells them apart may be missing. Identical values can stand only once.",
  "data": [
    {"smiles": "CC(C)(C#Cc1ccc(-c2ccc(Cl)c3c(NS(=O)(=O)C4CC4)nn(CC(F)F)c23)c([C@H](Cc2cc(F)cc(F)c2)NC(=O)Cn2nc(C(F)F)c3c2C(F)(F)[C@@H]2C[C@H]32)n1)S(C)(=O)=O", "note": "[GS-CA1]", "values": [
      {"measurement": "Plasma GS-CA1 level", "setting": "100 mg/kg s.c., 0.006 weeks post dose, unit not given (Fig. 1b in nM)", "result": "41.2 and 93.2"},
      {"measurement": "Plasma GS-CA1 level", "setting": "100 mg/kg s.c., 0.018 weeks post dose, unit not given", "result": 240},
      {"measurement": "Plasma GS-CA1 level", "setting": "100 mg/kg s.c., 0.047 weeks post dose, unit not given", "result": 588},
      {"measurement": "Plasma GS-CA1 level", "setting": "100 mg/kg s.c., 0.14 weeks post dose, unit not given", "result": 2054},
      {"measurement": "Plasma GS-CA1 level", "setting": "100 mg/kg s.c., 0.29 weeks post dose, unit not given", "result": 2247},
      {"measurement": "Plasma GS-CA1 level", "setting": "100 mg/kg s.c., 0.43 weeks post dose, unit not given", "result": 1217},
      {"measurement": "Plasma GS-CA1 level", "setting": "100 mg/kg s.c., 0.57 weeks post dose, unit not given", "result": 649},
      {"measurement": "Plasma GS-CA1 level", "setting": "100 mg/kg s.c., 1 week post dose, unit not given", "result": 448},
      {"measurement": "Plasma GS-CA1 level", "setting": "100 mg/kg s.c., 2 weeks post dose, unit not given", "result": 254},
      {"measurement": "Plasma GS-CA1 level", "setting": "100 mg/kg s.c., 3 weeks post dose, unit not given", "result": 125},
      {"measurement": "Plasma GS-CA1 level", "setting": "100 mg/kg s.c., 4 weeks post dose, unit not given", "result": 115},
      {"measurement": "Plasma GS-CA1 level", "setting": "100 mg/kg s.c., 5 weeks post dose, unit not given", "result": 92.7},
      {"measurement": "Plasma GS-CA1 level", "setting": "100 mg/kg s.c., 6 weeks post dose, unit not given", "result": 65.1},
      {"measurement": "Plasma GS-CA1 level", "setting": "100 mg/kg s.c., 8 weeks post dose, unit not given", "result": 43.2},
      {"measurement": "Plasma GS-CA1 level", "setting": "100 mg/kg s.c., 10 weeks post dose, unit not given", "result": 23.6},
      {"measurement": "Plasma GS-CA1 level", "setting": "100 mg/kg s.c., 12 weeks post dose, unit not given", "result": 11.5},
      {"measurement": "Plasma GS-CA1 level", "setting": "100 mg/kg s.c., 14 weeks post dose, unit not given", "result": "15.5 and 6.3"},
      {"measurement": "Plasma GS-CA1 level", "setting": "100 mg/kg s.c., 16 weeks post dose, unit not given", "result": "10.4 and 5.1"},
      {"measurement": "Plasma GS-CA1 level", "setting": "100 mg/kg s.c., 18 weeks post dose, unit not given", "result": "10.7 and 2.4"},
      {"measurement": "Plasma GS-CA1 level", "setting": "300 mg/kg s.c., 0.006 weeks post dose, unit not given (Fig. 1b in nM)", "result": "74.8 and 53.9"},
      {"measurement": "Plasma GS-CA1 level", "setting": "300 mg/kg s.c., 0.018 weeks post dose, unit not given", "result": "137 and 203 and 314"},
      {"measurement": "Plasma GS-CA1 level", "setting": "300 mg/kg s.c., 0.047 weeks post dose, unit not given", "result": "205 and 325 and 1054"},
      {"measurement": "Plasma GS-CA1 level", "setting": "300 mg/kg s.c., 0.14 weeks post dose, unit not given", "result": "3062 and 1232 and 2737"},
      {"measurement": "Plasma GS-CA1 level", "setting": "300 mg/kg s.c., 0.29 weeks post dose, unit not given", "result": "3422 and 1597 and 1786"},
      {"measurement": "Plasma GS-CA1 level", "setting": "300 mg/kg s.c., 0.43 weeks post dose, unit not given", "result": "1984 and 1345"},
      {"measurement": "Plasma GS-CA1 level", "setting": "300 mg/kg s.c., 0.57 weeks post dose, unit not given", "result": "1342 and 1428"},
      {"measurement": "Plasma GS-CA1 level", "setting": "300 mg/kg s.c., 1 week post dose, unit not given", "result": "938 and 936"},
      {"measurement": "Plasma GS-CA1 level", "setting": "300 mg/kg s.c., 2 weeks post dose, unit not given", "result": "1435 and 680 and 798"},
      {"measurement": "Plasma GS-CA1 level", "setting": "300 mg/kg s.c., 3 weeks post dose, unit not given", "result": "467 and 939 and 816"},
      {"measurement": "Plasma GS-CA1 level", "setting": "300 mg/kg s.c., 4 weeks post dose, unit not given", "result": "461 and 659"},
      {"measurement": "Plasma GS-CA1 level", "setting": "300 mg/kg s.c., 5 weeks post dose, unit not given", "result": "226 and 377 and 512"},
      {"measurement": "Plasma GS-CA1 level", "setting": "300 mg/kg s.c., 6 weeks post dose, unit not given", "result": "291 and 348 and 602"},
      {"measurement": "Plasma GS-CA1 level", "setting": "300 mg/kg s.c., 8 weeks post dose, unit not given", "result": "243 and 396"},
      {"measurement": "Plasma GS-CA1 level", "setting": "300 mg/kg s.c., 10 weeks post dose, unit not given", "result": "116 and 206"},
      {"measurement": "Plasma GS-CA1 level", "setting": "300 mg/kg s.c., 12 weeks post dose, unit not given", "result": "56.5 and 98.6 and 116"},
      {"measurement": "Plasma GS-CA1 level", "setting": "300 mg/kg s.c., 14 weeks post dose, unit not given", "result": "66.9 and 71.3"},
      {"measurement": "Plasma GS-CA1 level", "setting": "300 mg/kg s.c., 16 weeks post dose, unit not given", "result": "19.3 and 37.8 and 64.2"},
      {"measurement": "Plasma GS-CA1 level", "setting": "300 mg/kg s.c., 18 weeks post dose, unit not given", "result": "10 and 26.3 and 22.2"},
      {"measurement": "concentration at 0.018 weeks", "setting": "male, Indian origin, rhesus monkey, in vivo, 100 mg/kg, Plasma GS-CA1 level, 100 mg/kg s.c., 0.018 weeks post dose, unit inferred", "result": 202, "unit": "nM"},
      {"measurement": "concentration at 0.047 weeks", "setting": "male, Indian origin, rhesus monkey, in vivo, 100 mg/kg, Plasma GS-CA1 level, 100 mg/kg s.c., 0.047 weeks post dose, unit inferred", "result": 436, "unit": "nM"},
      {"measurement": "concentration at 0.14 weeks", "setting": "male, Indian origin, rhesus monkey, in vivo, 100 mg/kg, Plasma GS-CA1 level, 100 mg/kg s.c., 0.14 weeks post dose, unit inferred", "result": 1210, "unit": "nM"},
      {"measurement": "concentration at 0.29 weeks", "setting": "male, Indian origin, rhesus monkey, in vivo, 100 mg/kg, Plasma GS-CA1 level, 100 mg/kg s.c., 0.29 weeks post dose, unit inferred", "result": 1160, "unit": "nM"},
      {"measurement": "concentration at 0.43 weeks", "setting": "male, Indian origin, rhesus monkey, in vivo, 100 mg/kg, Plasma GS-CA1 level, 100 mg/kg s.c., 0.43 weeks post dose, unit inferred", "result": 910, "unit": "nM"},
      {"measurement": "concentration at 0.57 weeks", "setting": "male, Indian origin, rhesus monkey, in vivo, 100 mg/kg, Plasma GS-CA1 level, 100 mg/kg s.c., 0.57 weeks post dose, unit inferred", "result": 487, "unit": "nM"}
    ]}
  ]
}
